Experimental data reported in US20240058283A1, “THE MODE OF ACTION OF N-MeDCPA ON TRPC CHANNELS” (West Virginia University Board of Governors on Behalf of …, priority 2022, published 2024).

Tests used:
[1] = Metabolite formation in human liver S9; assay type: in vitro ADME; conditions: cofactors-fortified human liver S9, 37 degrees centigrade, 1 hour; LC-MS/MS
Method: Drug Synthesis—ELP-004 (N-MeDCPA) was synthesized as described in U.S. patent Ser. No. 10/682,320. […] Metabolites formed after incubations using either cofactors-fortified mouse or human liver S9 (mouse liver S9; human liver S9) at 37 degrees centigrade for 1 hour. The reaction was quenched by ultracentrifugation. The supernatant was analyzed using LC-MS/MS analysis using Accela LC (Thermo Scientific, Inc., San Jose, CA) coupled to an LTQ LX or to LTQ Orbitrap XL.
ELP-004 is N-(3,4-dichlorophenyl)-N-methylpropanamide. The core structure of ELP-004 is an aniline compound. Aniline compounds, generally, have a high risk of forming reactive metabolites. ELP-004 was specifically designed to preclude formation of reactive metabolites. Methylation of the amide nitrogen improves metabolic stability.

[2] = molecular target: T1, TRPC7 (Homo sapiens, UniProt Q9HCX4); assay: Carbachol (Cch)-induced Sr2+ entry in Fura2-loaded HEK293 cells overexpressing TRPC7; assay type: cell-based; conditions: versus DAG-mediated activation, FIG. 2D, E
T1 construct: expressed in transfected cells; host or cells: HEK293 (transient transfection)
T1 sequence (Q9HCX4 1-862): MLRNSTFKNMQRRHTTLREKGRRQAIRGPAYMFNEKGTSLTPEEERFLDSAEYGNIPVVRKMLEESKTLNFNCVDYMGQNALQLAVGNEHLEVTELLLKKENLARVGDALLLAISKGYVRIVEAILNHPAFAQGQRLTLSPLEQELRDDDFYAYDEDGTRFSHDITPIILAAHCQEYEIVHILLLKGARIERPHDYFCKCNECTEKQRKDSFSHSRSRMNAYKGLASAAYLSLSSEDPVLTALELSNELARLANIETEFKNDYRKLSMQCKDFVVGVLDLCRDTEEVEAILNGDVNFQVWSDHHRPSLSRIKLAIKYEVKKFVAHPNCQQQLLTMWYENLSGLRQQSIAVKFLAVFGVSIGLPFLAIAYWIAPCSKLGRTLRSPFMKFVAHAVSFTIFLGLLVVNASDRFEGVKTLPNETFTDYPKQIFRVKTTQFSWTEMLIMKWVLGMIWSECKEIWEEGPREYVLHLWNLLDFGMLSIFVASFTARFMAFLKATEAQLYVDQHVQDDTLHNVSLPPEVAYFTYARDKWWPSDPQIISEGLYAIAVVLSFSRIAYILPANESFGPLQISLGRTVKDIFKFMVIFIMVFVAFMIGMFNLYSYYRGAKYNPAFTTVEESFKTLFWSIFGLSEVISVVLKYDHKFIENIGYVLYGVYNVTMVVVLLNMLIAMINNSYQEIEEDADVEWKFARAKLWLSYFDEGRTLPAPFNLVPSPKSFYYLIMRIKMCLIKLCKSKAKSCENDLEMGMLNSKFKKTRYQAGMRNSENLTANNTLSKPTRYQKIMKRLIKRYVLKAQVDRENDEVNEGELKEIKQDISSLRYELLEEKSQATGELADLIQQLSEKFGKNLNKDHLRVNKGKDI
From the text: Inhibition of GPCR-mediated TRPC activation. Since TRPC4 and TRPC5 are not activated by DAG, we utilized carbachol (Cch)-induced Sr^2+ entry to determine their sensitivity to ELP-004. Since Cch drives ER Ca^2+ release, Cch-induced Ca^2+ entry includes both store-operated and TRPC-mediated components. To specifically measure ion entry through TRPC channels, we took advantage of the lack of ion selectivity of TRPC channel and substituted Sr^2+ for Ca^2+ as previously described^7. As expected, Cch stimulated rapid ER Ca^2+ release immediately upon addition in both TRPC4- and TRPC5-expressing cells (FIG. 2A,B). The subsequent addition of Sr^2+ (3 mM) lead to a significant increase in Fura ratio with a substantially larger response in TRPC5-expressing than TRPC4-expressing cells. […] Therefore, we assessed inhibition of TRPC7 by ELP-004 using the Cch Sr^2+ assay (FIG. 2D, E). […]
TRPC activity assay—Cells grown on glass coverslips were incubated in a cation-safe buffer (107 mM NaCl, 7.2 mM KCl, 1.2 mM MgCl2, 11.5 mM Glucose, 20 mM HEPES-NaOH, 1 mM CaCl2), pH 7.2) and loaded with Fura2-acetoxymethylester (Fura2-AM; 2 μM) for 30 min at 24° C. as previously described^10,11. […] Ca^2+/Sr^2+ measurements were taken using a Leica DMI 6000B fluorescence microscope controlled by Slidebook software (Intelligent Imaging Innovations, Denver, CO). […]

CCC(=O)N(C)c1ccc(Cl)c(Cl)c1 [ELP-004, N-(3,4-dichlorophenyl)-N-methylpropanamide]
formation of reactive or toxic metabolites [1]: No reactive or toxic compounds were formed | increase in sensitivity to ELP-004 in the Cch Sr2+ assay [2]: 3 order of magnitude
